Reference: patent US5262440A, “Antitumor compositions and methods of treatment” (Eli Lilly and Company, priority 1991, dated 1993)

Key:
[1] = phase I clinical studies; cited from earlier work
[2] = all species (mice, rats, dogs, monkeys); cited from earlier work
[3] = metabolite of sulofenur; cited from earlier work
[4] = metabolite of sulofenur; cited from earlier work; remark: listed apart in the source
[5] = test system: 6C3HED lymphosarcoma (Gardner lymphosarcoma, GLS); assay: Percent inhibition of tumor growth in C3H mice bearing 6C3HED lymphosarcoma (Gardner lymphosarcoma, GLS), oral; assay type: in vivo; details: oral gavage, daily for 8 days
Method: (§1) The compounds were tested in C3H mice bearing a 6C3HED lymphosarcoma, also known as the Gardner lymphosarcoma (GLS). The 6C3HED lymphosarcoma was obtained from the Division of Cancer Treatment, National Cancer Institute, Tumor Bank, maintained at E. G. and G. Mason Research (Worcester, Mass.). First passage tumor was stored in liquid nitrogen using standard techniques. The transplanted tumor was reestablished from the Tumor Bank every six months or as needed. The tumor was maintained by serial passage twice weekly in C3H mice.
In the procedures utilized here, the tumor was removed from passage animals and minced into 1- to 3-mm cubic fragments using sterile techniques. Tumor pieces were checked for sterility using both Antibiotic Medium 1 and Brain Heart Infusion (Difco, Detroit, Mich.). Recipient mice were shaved and the tumor pieces were implanted subcutaneously in an axillary site by trochar.
(§2) Drug therapy on the appropriate schedule was initiated on the day after tumor implantation. The compound being tested was mixed with 2.5% Emulphor EL620 from GAF Corporation (1:40 dilution in 0.9% saline). The total dosage volume for each administration was 2.5 mL. All animals were weighed at the beginning and end of administration of the subject compounds. Food and water were provided ad libitum.
(§3) Each control group and each dosage level of the treated groups consisted of 10 mice selected at random from the pool of implanted animals. The compounds were administered orally by gavage with the use of an 18-gauge needle. Compounds were dosed daily for 8 days.
The tumor was measured the day after treatment ended with two dimensional measurements (width and length) of the tumor taken using Vernier calipers. Tumor weights were calculated from these measurements using the following formula:
Tumor weight (mg)=[tumor length (mm)×[tumor width (mm)]^2 ].div.2
At least one control group of an equal number of mice was treated with the same volume of 2.5% Emulphor only. The percent inhibition is determined by subtracting the ratio of the mean tumor size of the test group relative to the control group from one and multiplying the result by 100.
(§4) The results of several experiments in mice bearing a 6C3HED lymphosarcoma when the instant compounds were administered orally are provided in Table I. In the Table, column 1 gives the dose level of the compound mixture of Example 1, column 2 provides the percent inhibition of tumor growth, and column 3 gives the number of mice which died relative to the total number of animals in the group.

[6] = test system: C3H mice bearing a 6C3HED lymphosarcoma; assay: Toxicity (mice which died relative to total number in group) in C3H mice bearing 6C3HED lymphosarcoma; assay type: in vivo; details: oral gavage, daily for 8 days
Method: as §1, §2, §3, §4

In the case of `O=C(Nc1ccc(Cl)cc1)NS(=O)(=O)c1ccc2c(c1)CCC2` [sulofenur, N-(indan-5-sulfonyl)-N'-(4-chlorophenyl)urea], the “major metabolites in patients” value [1] is given as 1-hydroxy- and 1-ketoindansulfonylureas, the adsorption [2] is given as “good adsorption” and the “metabolism (extent)” value [2] is given as “extensive metabolism”.
For `O=C(Nc1ccc(Cl)cc1)NS(=O)(=O)c1ccc2c(c1)CCC2=O` [N-(1-ketoindan-5-sulfonyl)-N'-(4-chlorophenyl)urea], the “retention in humans compared with other species tested” value [3] is listed as “retained longer in humans than in the other species tested”, the “contribution of metabolite to adverse effects” value [4] is listed as “contribute to the adverse effects” and the “therapeutic activity of metabolite” value [4] is listed as “therapeutically inactive”.
With “N-[[(4-chlorophenyl)amino]carbonyl]-indene-5-sulfonamide (A) and N-[[(4-chlorophenyl)amino]carbonyl]-indene-6-sulfonamide (B) [Example 1]” the “Percent Inhibition (of tumor growth)” value ([5]; dosage 25.0 (unit not given)) was 16%, the “Percent Inhibition (of tumor growth)” value ([5]; dosage 50.0 (unit not given)) was 36% and the “Percent Inhibition (of tumor growth)” value ([5]; dosage 100.0 (unit not given)) was 77%. The “Percent Inhibition (of tumor growth)” value ([5]; dosage 150.0 (unit not given)) was 100%, the “Percent Inhibition (of tumor growth)” value ([5]; dosage 300.0 (unit not given)) was 100% and the “Toxic/Total (mice which died relative to total number of animals in the group)” value ([6]; dosage 25.0 (unit not given)) was 0/10. For the same compound, the “Toxic/Total (mice which died relative to total number of animals in the group)” value ([6]; dosage 50.0 (unit not given)) was 0/10, the “Toxic/Total (mice which died relative to total number of animals in the group)” value ([6]; dosage 100.0 (unit not given)) was 0/10 and the “Toxic/Total (mice which died relative to total number of animals in the group)” value ([6]; dosage 150.0 (unit not given)) was 0/10. The “Toxic/Total (mice which died relative to total number of animals in the group)” value ([6]; dosage 300.0 (unit not given)) was 0/10.
In the case of `O=C(Nc1ccc(Cl)cc1)NS(=O)(=O)c1ccc2c(c1)CCC2O` (stereo not shown) [N-(1-hydroxyindan-5-sulfonyl)-N'-(4-chlorophenyl)urea], the “retention in humans compared with other species tested” value [3] is given as “retained longer in humans than in the other species tested”, the “contribution of metabolite to adverse effects” value [4] is given as “contribute to the adverse effects” and the “therapeutic activity of metabolite” value [4] is given as “therapeutically inactive”.
